# Key:
# Assay type in all cases: functional
# [1] = tested on: OVCAR-5; assay: Cytotoxicity against Homo sapiens (human) OVCAR5 cells after 48 hr by SRB assay; details: OVCAR-5, 48 h
# [2] = tested on: SK-MEL-28; assay: Cytotoxicity against Homo sapiens (human) SK-MEL-28 cells after 48 hr by SRB assay; details: SK-MEL-28, 48 h
# [3] = tested on: Malme-3M; assay: Cytotoxicity against Homo sapiens (human) MALME-3M cells after 48 hr by SRB assay
# [4] = tested on: SNB-75; assay: Cytotoxicity against Homo sapiens (human) SNB75 cells after 48 hr by SRB assay; details: SNB-75, 48 h
# [5] = tested on: SW-620; assay: Cytotoxicity against Homo sapiens (human) SW620 cells after 48 hr by SRB assay; details: SW-620, 48 h
# [6] = tested on: HCT-15; assay: Cytotoxicity against Homo sapiens (human) HCT15 cells after 48 hr by SRB assay; details: HCT-15, 48 h
# [7] = tested on: HCC 2998; assay: Cytotoxicity against Homo sapiens (human) HCC2998 cells after 48 hr by SRB assay; details: HCC 2998, 48 h
# [8] = tested on: T47D; assay: Cytotoxicity against Homo sapiens (human) T47D cells after 48 hr by SRB assay
# [9] = tested on: BT-549; assay: Cytotoxicity against Homo sapiens (human) BT549 cells after 48 hr by SRB assay; details: BT-549, 48 h
# [10] = tested on: DU-145; assay: Cytotoxicity against Homo sapiens (human) DU145 cells after 48 hr by SRB assay; details: DU-145, 48 h
# [11] = tested on: UO-31; assay: Cytotoxicity against Homo sapiens (human) UO31 cells after 48 hr by SRB assay; details: UO-31, 48 h
# [12] = tested on: ACHN; assay: Cytotoxicity against Homo sapiens (human) ACHN cells after 48 hr by SRB assay
# [13] = tested on: A498; assay: Cytotoxicity against Homo sapiens (human) A498 cells after 48 hr by SRB assay; details: A498, 48 h
# [14] = tested on: 786-0; assay: Cytotoxicity against Homo sapiens (human) 786-0 cells after 48 hr by SRB assay; details: 786-0, 48 h
# [15] = Cytotoxicity against Homo sapiens (human) NCI-ADR-RES cells after 48 hr by SRB assay
# [16] = read-out: LC50 (the source's name)
structure (smiles),measurement,setting,value
Oc1c(-c2nnc(-c3ccc(Cl)cc3)o2)sc2nnc(-c3ccccc3)c(-c3ccccc3)c12,GI50,[1],2.18 µM
same,TGI,[1],18.3 µM
same,CC50,[1]; [16],0.0183 µM
same,GI50,[2],1.14 µM
same,TGI,[2],18.3 µM
same,CC50,[2]; [16],0.0183 µM
same,GI50,[3],4.61 µM
same,TGI,[3],11.3 µM
same,GI50,[4],5.74 µM
same,TGI,[4],18.3 µM
same,GI50,[5],4.56 µM
same,TGI,[5],6.61 µM
same,GI50,[6],2.27 µM
same,TGI,[6],18.3 µM
same,GI50,[7],4.99 µM
same,TGI,[7],18.3 µM
same,GI50,[8],4.89 µM
same,TGI,[8],18.3 µM
same,GI50,[9],1.01 µM
same,TGI,[9],18.3 µM
same,GI50,[10],6.22 µM
same,TGI,[10],18.3 µM
same,GI50,[11],3.62 µM
same,TGI,[11],6.22 µM
same,GI50,[12],4.25 µM
same,TGI,[12],17.4 µM
same,CC50,[12]; [16],0.0183 µM
same,GI50,[13],5.92 µM
same,TGI,[13],12.5 µM
same,CC50,[13]; [16],0.0183 µM
same,GI50,[14],5.86 µM
same,TGI,[14],18.3 µM
same,GI50,[15],2.58 µM
same,TGI,[15],18.3 µM

# — ChEMBL document CHEMBL3045770, “Design and synthesis of some thieno[2,3-c]pyridazine derivatives of expected anticancer activity” (2013)
